Data reported in ChEMBL document CHEMBL1146385, “Discovery of novel phenoxyacetic acid derivatives as antimycobacterial agents” (2007).
Values after ≈ are worked out from the molar mass of the structure shown.

The compounds below were run on Mycobacterium tuberculosis (assay: Antimycobacterial activity against isoniazid-resistant Mycobacterium tuberculosis by broth dilution assay).
Type: functional

Going from `COc1cc(C2=NN(C(N)=O)C(c3ccc(O)cc3)C2)ccc1OCC(=O)O` (configuration not stated) to `COc1cc(C2=NN(C(N)=S)C(c3ccc(O)cc3)C2)ccc1OCC(=O)O` (configuration not stated), the MIC falls from 1.23 µg/mL (≈ 3.19 µM) to 0.2 µg/mL (≈ 0.498 µM) (6.1-fold).

First: COc1cc(C2=NN(C(N)=S)C(c3ccc(Cl)cc3)C2)ccc1OCC(=O)O (configuration not stated)
Second: COc1cc(C2=NN(C(N)=O)C(c3ccc(Cl)cc3)C2)ccc1OCC(=O)O (configuration not stated)
The MIC of the first is 2.2-fold lower: 0.06 µg/mL (≈ 0.143 µM) for the first, 0.13 µg/mL (≈ 0.322 µM) for the second.

`COc1cc(C2=NN(C(N)=S)C(c3ccccc3)C2)ccc1OCC(=O)O` (configuration not stated) and `COc1cc(C2=NN(C(N)=O)C(c3ccccc3)C2)ccc1OCC(=O)O` (configuration not stated) are within 1.5-fold of each other in MIC: 6.25 µg/mL (≈ 16.2 µM) for the first, 6.12 µg/mL (≈ 16.6 µM) for the second.

First: COc1cc(C2=NN(C(N)=O)C(c3ccc(N)cc3)C2)ccc1OCC(=O)O (configuration not stated)
Second: COc1cc(C2=NN(C(N)=S)C(c3ccc(N)cc3)C2)ccc1OCC(=O)O (configuration not stated)
The MIC of the first is 2.3-fold lower: 5.42 µg/mL (≈ 14.1 µM) for the first, 12.5 µg/mL (≈ 31.2 µM) for the second.

`COc1cc(C2=NN(C(N)=S)C(Cc3ccccc3)C2)ccc1OCC(=O)O` (configuration not stated) and `COc1cc(C2=NN(C(N)=O)C(Cc3ccccc3)C2)ccc1OCC(=O)O` (configuration not stated) are the same in MIC: 6.25 µg/mL (≈ 15.6 µM) for the first, 6.25 µg/mL (≈ 16.3 µM) for the second.

`COc1cc(C2=NN(C(N)=S)C(c3ccc(C)cc3)C2)ccc1OCC(=O)O` (configuration not stated) and `COc1cc(C2=NN(C(N)=O)C(c3ccc(C)cc3)C2)ccc1OCC(=O)O` (configuration not stated) are within 1.5-fold of each other in MIC: 6.15 µg/mL (≈ 15.4 µM) for the first, 6.25 µg/mL (≈ 16.3 µM) for the second.

Going from `COc1cc(C2=NN(C(N)=O)C(c3ccccc3Cl)C2)ccc1OCC(=O)O` (configuration not stated) to `COc1cc(C2=NN(C(N)=S)C(c3ccccc3Cl)C2)ccc1OCC(=O)O` (configuration not stated), the MIC falls from 1.26 µg/mL (≈ 3.12 µM) to 0.12 µg/mL (≈ 0.286 µM) (10-fold).

Compared with `COc1cc(C2=NN(C(N)=O)C(c3cccc([N+](=O)[O-])c3)C2)ccc1OCC(=O)O` (configuration not stated), `COc1cc(C2=NN(C(N)=S)C(c3cccc([N+](=O)[O-])c3)C2)ccc1OCC(=O)O` (configuration not stated) is 2-fold lower in MIC: 6.25 µg/mL (≈ 15.1 µM) for the first, 3.12 µg/mL (≈ 7.25 µM) for the second.

`COc1cc(C2=NN(C(N)=O)C(c3ccccc3O)C2)ccc1OCC(=O)O` (configuration not stated) and `COc1cc(C2=NN(C(N)=S)C(c3ccccc3O)C2)ccc1OCC(=O)O` (configuration not stated) are the same in MIC: 0.58 µg/mL (≈ 1.51 µM) for the first, 0.58 µg/mL (≈ 1.44 µM) for the second.

`COc1cc(C2=NN(C(N)=O)C(c3ccc([N+](=O)[O-])cc3)C2)ccc1OCC(=O)O` (configuration not stated) and `COc1cc(C2=NN(C(N)=S)C(c3ccc([N+](=O)[O-])cc3)C2)ccc1OCC(=O)O` (configuration not stated) are the same in MIC: 6.25 µg/mL (≈ 15.1 µM) for the first, 6.25 µg/mL (≈ 14.5 µM) for the second.

First: COc1cc(C2=NN(C(N)=O)C(c3ccc(F)cc3)C2)ccc1OCC(=O)O (configuration not stated)
Second: COc1cc(C2=NN(C(N)=S)C(c3ccc(F)cc3)C2)ccc1OCC(=O)O (configuration not stated)
The MIC of the first is 3.4-fold higher: 3.25 µg/mL (≈ 8.39 µM) for the first, 0.96 µg/mL (≈ 2.38 µM) for the second.
